tested on: PKC mediated IL-2 production; test: IL-2 ELISA, human primary T cell, anti CD3+CD28+; format: cell-based; conditions: Homo sapiens, T-cell, 24 h, human primary T cells stimulated with αCD3 and αCD28, 24 hours
How it was run: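 Human peripheral blood T cells, pre-expanded with αCD3/αCD28 and IL-2 and then washed free of IL-2, were pre-incubated with compound for 1 h at 37° C. They were then stimulated on plates coated with […] αCD3 and 5 μg/ml αCD28, or with 0.5 ng/ml PMA plus 0.1 uM ionomycin in the counter assay. IL-2 in supernatants was measured by ELISA after 24 h.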

Structure (SMILES)	EC50 [µM]
COc1cc(Nc2ncc(Cl)c(N[C@@H]3C[C@@H]4CCCN4C(C)(C)C3)n2)cc(OC)c1OC [Compound 183, 5-chloro-N4-((7R,8aS)-5,5-dimethyloctahydroindolizin-7-yl)-N2-(3,4,5-trimethoxyphenyl)pyrimidine-2,4-diamine]	1 to 10
CNc1nc2cc(Nc3ncc(F)c(N[C@@H]4C[C@@H]5CCCN5C(C)(C)C4)n3)c(F)cc2o1 [Compound 253, N5-(4-((7R,8aS)-octahydro-5,5-dimethylindolizin-7-ylamino)-5-fluoropyrimidin-2-yl)-6-fluoro-N2-methylbenzo[d]oxazole-2,5-diamine]	1 to 10
CC1(C)C[C@H](Nc2nc(Nc3ccc(N4CC(C(N)=O)C4)c(C(F)(F)F)c3)ncc2F)C[C@@H]2CCCN21 [Compound 324, 1-(4-(4-((7R,8aS)-octahydro-5,5-dimethylindolizin-7-ylamino)-5-fluoropyrimidin-2-ylamino)-2-(trifluoromethyl)phenyl)azetidine-3-carboxamide]	0.5 to 1
CC1(C)CC[C@H]2C[C@@H](Nc3nc(Nc4ccc(N5CC6(COC6)C5)c(OC(F)F)c4)ncc3F)CCN21 [Compound 302, N2-(3-(Difluoromethoxy)-4-(2-oxa-6-azaspiro[3.3]heptan-6-yl)phenyl)-N4-((7S,8aS)-3,3-dimethyloctahydroindolizin-7-yl)-5-fluoropyrimidine-2,4-diamine]	0.5 to 1
Cc1ccc(Nc2ncc(F)c(N[C@@H]3C[C@@H]4CCCN4C(C)(C)C3)n2)cc1-n1nnnc1SCCO [Compound 282, 2-(1-(5-(4-((7R,8aS)-octahydro-5,5-dimethylindolizin-7-ylamino)-5-fluoropyrimidin-2-ylamino)-2-methylphenyl)-1H-tetrazol-5-ylthio)ethanol]	< 0.1
CC1(C)C[C@H](Nc2nc(Nc3ccc(OCCO)c(F)c3)ncc2F)C[C@@H]2CCCN21 [Compound 130, 2-(4-((4-(((7R,8aS)-5,5-dimethyloctahydroindolizin-7-yl)amino)-5-fluoropyrimidin-2-yl)amino)-2-fluorophenoxy)ethan-1-ol]	0.5 to 1
[2H]C1(Oc2ccc(Nc3ncc(F)c(N[C@H]4CCN5[C@@H](CCC5(C)C)C4)n3)cc2Cl)CC(O)C1 (stereo partly drawn) [Compound 313, 3-(2-Chloro-4-((4-(((7S,8aS)-3,3-dimethyloctahydroindolizin-7-yl)amino)-5-fluoropyrimidin-2-yl)amino)phenoxy)cyclobutan-3-d-1-ol]	0.1 to 0.5
CC1(C)C[C@H](Nc2nc(Nc3cccc(-n4nnnc4S)c3)ncc2F)C[C@@H]2CCCN21 [Compound 259, 1-(3-(4-((7R,8aS)-octahydro-5,5-dimethylindolizin-7-ylamino)-5-fluoropyrimidin-2-ylamino)phenyl)-1H-tetrazole-5-thiol]	1 to 10
Cn1nc2n(c1=O)-c1cc(Nc3ncc(F)c(N[C@@H]4C[C@@H]5CCCN5C(C)(C)C4)n3)ccc1OCC2(C)O (stereo partly drawn) [Compound 292, 5-fluoro-N2-(1H-2,3,4,5-tetrahydron-2,4-dimethyl-4-hydroxy-[1,2,4]triazolo[4,5-c][1,5]benzoxazepin-1-one-9-yl)-N4-((7R,8aS)-octahydro-5,5-dimethylindolizin-7-yl)pyrimidine-2,4-diamine]	0.5 to 1
Fc1cc(C2CC2)c(-n2cnnn2)cc1Nc1ncc(F)c(NC2CCN3CCCC3C2)n1 (racemic) [Compound 24, (±)-N^2-(4-cyclopropyl-2-fluoro-5-(1H-tetrazol-1-yl)phenyl)-5-fluoro-n^4-(octahydroindolizin-7-yl)pyrimidine-2,4-diamine]	0.1 to 0.5
CC1(C)CC(Nc2nc(Nc3ccc(O[C@@H]4CCOC4)c(C#N)c3)ncc2F)CC2CCCN21 (mixture of isomers) [Compound 57, 2-((R)-tetrahydrofuran-3-yloxy)-5-(5-fluoro-4-(octahydro-5,5-dimethylindolizin-7-ylamino)pyrimidin-2-ylamino)benzonitrile]	0.1 to 0.5
CC1(C)C[C@H](Nc2nc(Nc3ccc(F)c(-n4nnnc4C4CC4)c3)ncc2F)C[C@@H]2CCCN21 [Compound 143, N2-(3-(5-cyclopropyl-1H-tetrazol-1-yl)-4-fluorophenyl)-N4-((7R,8aS)-5,5-dimethyloctahydroindolizin-7-yl)-5-fluoropyrimidine-2,4-diamine]	< 0.1
COc1cc(Nc2ncc(F)c(N[C@@H]3C[C@@H]4CCCN4C(C)(C)C3)n2)cc(OC)c1 [Compound 161, N2-(3,5-dimethoxyphenyl)-N4-((7R,8aS)-5,5-dimethyloctahydroindolizin-7-yl)-5-fluoropyrimidine-2,4-diamine]	0.5 to 1
CC(O)COc1ccc(Nc2ncc(Cl)c(N[C@@H]3C[C@@H]4CCCN4C(C)(C)C3)n2)cc1C#N (stereo partly drawn) [Compound 229, 5-((5-chloro-4-(((7R,8aS)-5,5-dimethyloctahydroindolizin-7-yl)amino)pyrimidin-2-yl)amino)-2-(2-hydroxypropoxy)benzonitrile]	1 to 10
CC1(C)C[C@H](Nc2nc(Nc3ccc(OCCCO)c(C#N)c3)ncc2F)C[C@@H]2CCCN21 [Compound 213, 5-((4-(((7R,8aS)-5,5-dimethyloctahydroindolizin-7-yl)amino)-5-fluoropyrimidin-2-yl)amino)-2-(3-hydroxypropoxy)benzonitrile]	0.1 to 0.5
CC1(C)CC[C@H]2C[C@@H](Nc3nc(Nc4ccc(OC5CC(O)C5)c(OC(F)F)c4)ncc3F)CCN21 (stereo partly drawn) [Compound 306, 3-(2-(Difluoromethoxy)-4-((4-(((7S,8aS)-3,3-dimethyloctahydroindolizin-7-yl)amino)-5-fluoropyrimidin-2-yl)amino)phenoxy)cyclobutan-1-ol]	0.1 to 0.5

Next, values leading:

EC50 [µM]	Structure (SMILES)
0.1 to 0.5	COCCOc1ccc(Nc2ncc(F)c(N[C@@H]3C[C@@H]4CCCN4C(C)(C)C3)n2)cc1C#N [Compound 172, 5-((4-(((7R,8aS)-5,5-dimethyloctahydroindolizin-7-yl)amino)-5-fluoropyrimidin-2-yl)amino)-2-(2-methoxyethoxy)benzonitrile]
0.1 to 0.5	Cn1nnn(-c2cc(Nc3ncc(C#N)c(N[C@@H]4C[C@@H]5CCCN5C(C)(C)C4)n3)c(F)cc2OC2COC2)c1=O [Compound 113, 4-(((7R,8aS)-5,5-dimethyloctahydroindolizin-7-yl)amino)-2-((2-fluoro-5-(4-methyl-5-oxo-4,5-dihydro-1H-tetrazol-1-yl)-4-(oxetan-3-yloxy)phenyl)amino)pyrimidine-5-carbonitrile]
0.1 to 0.5	CC(O)c1cc(F)c(Nc2ncc(F)c(N[C@@H]3C[C@@H]4CCCN4C(C)(C)C3)n2)cc1-n1nnn(C)c1=O (stereo partly shown) [Compound 94]
1 to 10	Cc1nnnn1-c1cc(Nc2ncc(F)c(N[C@@H]3C[C@@H]4CCCN4C(C)(C)C3)n2)c(F)cc1O [Compound 252, 4-(4-((7R,8aS)-octahydro-5,5-dimethylindolizin-7-ylamino)-5-fluoropyrimidin-2-ylamino)-5-fluoro-2-(5-methyl-1H-tetrazol-1-yl)phenol]
0.1 to 0.5	Cn1nnn(-c2cc(Nc3ncc(F)c(N[C@@H]4C[C@@H]5CCCN5C(C)(C)C4)n3)c(F)cc2O[C@H]2CCOC2)c1=O [Compound 110, 1-(5-((4-(((7R,8aS)-5,5-dimethyloctahydroindolizin-7-yl)amino)-5-fluoropyrimidin-2-yl)amino)-4-fluoro-2-(((S)-tetrahydrofuran-3-yl)oxy)phenyl)-4-methyl-1,4-dihydro-5H-tetrazol-5-one]
< 0.1	COc1ccc(Nc2ncc(F)c(N[C@@H]3C[C@@H]4CCCN4C(C)(C)C3)n2)cc1-n1nnn(C)c1=O [Compound 278, 1-(5-(4-((7R,8aS)-octahydro-5,5-dimethylindolizin-7-ylamino)-5-fluoropyrimidin-2-ylamino)-2-methoxyphenyl)-4-methyl-1H-tetrazol-5(4H)-one]
1 to 10	CC(C)OC(=O)COc1cc(F)c(Nc2ncc(F)c(N[C@@H]3C[C@@H]4CCCN4C(C)(C)C3)n2)cc1-n1nnn(C)c1=O [Compound 323, isopropyl 2-(4-(4-((7R,8aS)-octahydro-5,5-dimethylindolizin-7-ylamino)-5-fluoropyrimidin-2-ylamino)-5-fluoro-2-(4,5-dihydro-4-methyl-5-oxotetrazol-1-yl)phenoxy)acetate]
< 0.1	CCc1cc(F)c(Nc2ncc(F)c(N[C@@H]3C[C@@H]4CCCN4C(C)(C)C3)n2)cc1-n1nnn(C)c1=O [Compound 95, 1-(5-(4-((7R,8aS)-octahydro-5,5-dimethylindolizin-7-ylamino)-5-fluoropyrimidin-2-ylamino)-2-ethyl-4-fluorophenyl)-4-methyl-1H-tetrazol-5(4H)-one]
1 to 10	COCCOCCOc1cc(F)c(Nc2ncc(F)c(N[C@@H]3C[C@@H]4CCCN4C(C)(C)C3)n2)cc1-n1nnn(C)c1=O [Compound 198, 1-(5-((4-(((7R,8aS)-5,5-dimethyloctahydroindolizin-7-yl)amino)-5-fluoropyrimidin-2-yl)amino)-4-fluoro-2-(2-(2-methoxyethoxy)ethoxy)phenyl)-4-methyl-1,4-dihydro-5H-tetrazol-5-one]

same assay, conditions: human primary T cells stimulated with αCD3 and αCD28, 24 hours

EC50 [µM]	Structure (SMILES)
0.1 to 0.5	CC1(C)Oc2ccc(Nc3ncc(F)c(N[C@H]4C[C@H]5CCCN5C(C)(C)C4)n3)cc2-n2nnnc21 [Compound 1, N2-(4,4-dimethyl-4H-benzo[b]tetrazolo[1,5-d][1,4]oxazin-8-yl)-5-fluoro-N4-(octahydro-5,5-dimethylindolizin-7-amine)pyrimidine-2,4-diamine]
0.1 to 0.5	CC1(C)CC(Nc2nc(Nc3ccc(O[C@H]4CCOC4)c(C#N)c3)ncc2F)CC2CCCN21 (single isomer, unassigned) [Compound 62]
< 0.1	CC1(C)Oc2ccc(Nc3ncc(F)c(N[C@@H]4C[C@H]5CCCN5C(C)(C)C4)n3)cc2-n2nnnc21 [Compound 2, N2-(4,4-dimethyl-4H-benzo[b]tetrazolo[1,5-d][1,4]oxazin-8-yl)-5-fluoro-N4-(octahydro-5,5-dimethylindolizin-7-amine)pyrimidine-2,4-diamine]

From patent US9682976B2, “Protein kinase C inhibitors and uses thereof” (Rigel Pharmaceuticals, Inc., priority 2012, dated 2017)
